Test results published in ChEMBL document CHEMBL1153773, “Structure-activity relationship of seco-tanapartholides isolated from Achillea falcata for inhibition of HaCaT cell growth” (Eur J Med Chem, 2009).
Values after ≈ are worked out from the molar mass of the structure shown. Active and inactive are the calls of the source. The rule behind the calls is not given here.

Assays:
[1] = test system: HaCaT; experiment: Cytotoxicity against human HaCaT cells after 24 hrs by MTT assay; assay type: functional, cell-based
[2] = test system: HaCaT; experiment: Cytotoxicity against human HaCaT cells assessed as lactate dehydrogenase release at 5 ug/ml after 6 hrs by ELISA; assay type: functional
[3] = test system: HaCaT; experiment: Cytotoxicity against human HaCaT cells assessed as lactate dehydrogenase release at 10 ug/ml after 6 hrs by ELISA; assay type: functional
[4] = test system: HaCaT; experiment: Cytotoxicity against human HaCaT cells assessed as lactate dehydrogenase release at 15 ug/ml after 6 hrs by ELISA; assay type: functional
[5] = test system: HaCaT; experiment: Cytotoxicity against human HaCaT cells assessed as lactate dehydrogenase release at 20 ug/ml after 6 hrs by ELISA; assay type: functional
[6] = test system: HaCaT; experiment: Cytotoxicity against human HaCaT cells assessed as lactate dehydrogenase release at 25 ug/ml after 6 hrs by ELISA; assay type: functional
[7] = test system: HaCaT; experiment: Cytotoxicity against human HaCaT cells assessed as lactate dehydrogenase release at 50 ug/ml after 6 hrs by ELISA; assay type: functional
[8] = test system: HaCaT; experiment: Cytotoxicity against human HaCaT cells assessed as lactate dehydrogenase release at 75 ug/ml after 6 hrs by ELISA; assay type: functional
[9] = test system: HaCaT; experiment: Cytotoxicity against human HaCaT cells assessed as lactate dehydrogenase release at 100 ug/ml after 6 hrs by ELISA; assay type: functional
[10] = Cytotoxicity against human keratinocytes at 25 ug/ml; assay type: cell-based; conditions: keratinocyte
[11] = test system: HaCaT; experiment: Cytotoxicity against human HaCaT cells assessed as reduction in cell viability at 5 ug/ml after 24 hrs by MTT assay; assay type: functional
[12] = test system: HaCaT; experiment: Cytotoxicity against human HaCaT cells assessed as reduction in cell viability at 10 ug/ml after 24 hrs by MTT assay; assay type: functional
[13] = Cytotoxicity against human Keratinocyte cells assessed as reduction in cell viability at 5 ug/ml after 24 hrs by MTT assay; assay type: cell-based
[14] = Cytotoxicity against human Keratinocyte cells assessed as reduction in cell viability at 10 ug/ml after 24 hrs by MTT assay; assay type: cell-based
[15] = test system: HaCaT; experiment: Cell cycle arrest in human HaCaT cells assessed as accumulation at G2/M phase after 24 hrs; assay type: functional, cell-based

Structure (SMILES)	Activity [1]	IC50 [1] [µg/mL]	Activity [2] [%]	Activity [3] [%]	Activity [4] [%]	Activity [5] [%]	Activity [6] [%]	Activity [7] [%]	Activity [8] [%]	Activity [9] [%]	Activity [10]	Activity [11] [%]	Activity [12] [%]	Activity [13] [%]	Activity [14] [%]	Activity [15]
C=C1C(=O)O[C@H](C2=C(C)C(O)CC2=O)[C@@H]1CCC(C)=O (mixture of isomers)	Dose-dependent effect	19.1	2	3	2	5	3	0	0	0						
C=C1C(=O)O[C@H](C2=C(C)[C@@H](OC)CC2=O)[C@@H]1CCC(C)=O	Dose-dependent effect	7.1 (≈ 24.3 µM)	7	7	7	5	7	0	0	0	Toxic	44	66	> 10	> 10	Active
C=C1C(=O)O[C@H](C2=C(C)C(OC)CC2=O)[C@@H]1[C@@H](O)CC(C)=O (stereo not given in full)	Dose-dependent effect	16.7 (≈ 54.2 µM)	4	4	4	4	5	2	1	0						
C=C1C(=O)O[C@H](C2=C(C)[C@@H](O)CC2=O)[C@@H]1CCC(C)=O	Dose-dependent effect	13 (≈ 46.7 µM)	4	18	0	11	11	0	2							
